Results reported in patent publication US11413321B2, “Pharmaceutical composition for use in increasing hair, modifying scalp or skin, healing a wound, promoting osteogenesis, or modifying hair” (priority 2017, dated 2022).

Columns and labels:
Format in all cases: in vivo, Wistar rat
[1] = tested on: Itga4; test: Quantitative PCR of dorsal tissues after subcutaneous administration (Itga4); conditions: 20 μL per location into rat dorsal part; vs control without administration; FIG. 15
Protocol: (§1) 4.) Integrin subunit alpha 4 (Itga4), Rattus norvegicus: mRNA 3,736 bp NM 001107737.1 GI: 157819948 Next, a change in gene expression in tissues was examined. Three regions were set between the head and the tail of the dorsal part of a 12-week-old Wistar rat (male), and each region was divided between the left and the right of the backbone into two regions to set a total of six regions on the dorsal part. Milk or palmitic acid was injected in an amount of 20 μL per location at two locations in the vicinity of the center of each region. The distance between the two locations was 1 cm. The collected tissue fragments were frozen with liquid nitrogen, and stored at −80° C. […] Analysis of gene expression by quantitative PCR was performed in the following manner: Integrated DNA technologies, Inc (Skokie, Ill., USA) was requested to design and synthesize gene-specific primers and probes, and using PrimeTime Gene Expression Master Mix Reagent (Integrated DNA Technologies, Inc, Skokie, Ill., USA) and Rotor-Gene Q PCR Apparatus (QIAGEN GmbH, Hilden, Germany), PCR analysis was performed twice per gene per specimen to analyze the expression level of a target gene. […]

[2] = tested on: Cxcl12; test: Quantitative PCR of dorsal tissues after subcutaneous administration (Cxcl12); conditions: 20 μL per location into rat dorsal part; vs control without administration; FIG. 15
Protocol: as §1, with “2.) C—X—C motif chemokine ligand 12 (Cxcl12), transcript variant 1,” for “4.) Integrin subunit alpha 4 (Itga4),”, “1,880” for “3,736”, “022177.3” for “001107737.1”, “7649650” for “157819948”

[3] = tested on: PPAR-γ-positive cells; test: Immunohistological staining of rat dorsal skin after injection of fatty acids (PPAR-γ); conditions: 1 mg fatty acid in 20 μL per location
Protocol: Next, representative fatty acids contained in milk were administered to a 12-week-old Wistar rat at a plurality of locations on the dorsal skin as in Example 1(2) above, and a change in tissues by the administration was observed after the tissues were subjected to immunohistological staining. More specifically, physiological saline was administered in an amount of 20 μL per location, an administration liquid containing 1 mg of a fatty acid was administered in an amount of 20 μL per location, and a change in CD68-positive macrophage stained images and PPAR-γ-positive cell images by the administration was observed. Samples of the Wistar rat were obtained by sampling administration sites (four weeks after administration and eight weeks after administration). FIGS. 10A to 10G show the results. […] At saturated fatty acid injection sites, infiltration of a large number of CD68-positive cells was observed, and fibrillization of normal tissues was observed. Therefore, in FIGS. 10B to 10D, a change in fat tissues was examined at a location which was closest to the administration site and where normal tissues were maintained (non-fibrillization location).

Question: Which “expression level of Itga4 in tissues” value [1] does the source give for `CCCCCCCCCCCCCCCC(=O)O` [palmitic acid] here?
Answer: greatly increased

Question: What about the “expression level of Cxcl12 in tissues” value [2] of the same compound?
Answer: greatly increased

Question: What about the “increase in the number of PPAR-γ-positive cells at the administration site” value ([3]; eight weeks after administration) of the same compound?
Answer: maintained

Question: And the “number of PPAR-γ-positive cells at the administration site” value ([3]; four weeks after administration, vs physiological saline, FIGS. 10B-10G)?
Answer: increased
